Data: US20260317367A1, “SALTS INCLUDING CRYSTALLINE SALTS OF 25-HYDROXY-CHOLEST-5-EN-3-SULFATE AND METHODS FOR PREPARING SAME” (Durect Corporation, priority 2022, published 2026)
Entries after “also recorded” stand apart in the source; their conditions may differ. Where a name gives a salt, the structure may show the parent alone. Read-outs that look alike come from different tables or passages of the source.

Tests used:
Type in all cases: physicochemical
[1] = Appearance (color, clumping, flowability) of stored 25HC3S salts
[2] = Solubility of 25HC3S salts after one day at room temperature (HPLC, as free acid); conditions: one day; for Solubility in FaSSGF: Fasted State Simulated Gastric Fluid, pH 1.6, room temperature, LOD 0.0007 mg/mL; for Solubility in FaSSGF / solubility at 24 h: as free acid; for Solubility in methanol (in words): MeOH
Outline: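 HPLC quantified the clear supernatant after centrifugation, with organic-solvent samples diluted in water:MeOH 95:5 and aqueous ones undiluted; results are mg/mL as free acid (LOD 0.0007 mg/mL). Each salt was first equilibrated as a suspension with excess solid for one day on a room-temperature shaker.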

[3] = Angle of repose of 25HC3S salts
Outline: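 About 2 g of salt powder was poured through a 7 mm inner-diameter tube into a 21.14 mm rubber O-ring, forming a cone of fixed diameter. Cone height was measured with calipers and the angle of repose was calculated from it. Flow was classified per USP<1174>.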

[4] = Hausner ratio and compressibility index of 25HC3S salts; conditions: for Compressibility Index: Table C3 heads this index in %
Outline: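 Powder poured into a 5 mL graduated cylinder to about 5.0 mL (Vo), tapped 200 then 100 more times on a hard surface; final volume Vf recorded after 300 taps. Compressibility index and Hausner ratio calculated from Vo and Vf; flow character classed per USP <1174>.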

[5] = Solid-state chemical stability of 25HC3S salts at 2-8° C., 60° C. and 80° C. (HPLC assay and degradation products); conditions: for % Impurities, Total / % Impurities, 25-HC: ND = Not Detected; for % Impurities, 25-HC: 25-Hydroxy-Cholesterol
Outline: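 Crystalline 25HC3S salts (~25 mg powder per vial) stored at 2-8° C. or 80° C., pulled at 3 and 6 weeks; some 3-week 2-8° C. vials moved to 60° C. for 1 week. Dissolved in 100% methanol (sonication/vortexing, centrifugation or dilution), then HPLC against 25HC3S sodium standards (0.75-1.25 mg/mL) for assay and degradants.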

[6] = 2-8° C., 3 wk, listed as 25HC3S magnesium
[7] = 80° C., 3 wk, listed as 25HC3S magnesium
[8] = room temperature, listed as crystalline 25HC3S magnesium
[9] = 60° C., 1 week, listed as 25HC3S Magnesium
[10] = 80° C., 3 weeks, listed as 25HC3S Magnesium

## CC(CCCC(C)(C)O)C1CCC2C3CC=C4CC(OS(=O)(=O)O)CCC4(C)C3CCC12C (stereo not shown) [Salt #13]
[1]; [6]
  Appearance: White, free flowing powder, no clumping
[1]; 60° C., 1 wk (after 3 weeks at 2-8° C.), listed as 25HC3S magnesium
  Appearance: Brown, melted material stuck to bottom
[1]; 80° C., 3 weeks
  Appearance after 3 weeks at 80° C.: completely burned
[1]; [7]
  Appearance: Dark brown, melted material stuck to
[2]; EtOH, room temperature
  Solubility in ethanol (in words): did not reach saturation
[2]; [8]
  Solubility in FaSSGF (in words): low solubility
  Solubility in methanol (in words): relatively high solubility
[2]
  Solubility in FaSSGF: no solubilized drug was detected
[2]; room temperature
  Solubility in methanol (in words): did not reach saturation
[2]; saline, room temperature, listed as crystalline 25HC3S magnesium
  Solubility in saline / 0.9% sodium chloride (in words): low solubility
[3]; classification by angle of repose, listed as 25HC3S magnesium
  Flow Property per USP<1174> Powder Flow: Fair - aid not needed
[3]; listed as 25HC3S magnesium
  Angle of Repose: 37.7 degrees
  Angle of Repose, Rounded Whole Number: 38 degrees
[4]; listed as 25HC3S magnesium
  Compressibility Index: 36
  Hausner Ratio: 1.56
[5]; 2-8° C., 3 wk, 30240 min, listed as 25HC3S magnesium
  Assay: 90.8 % w/w
[5]; [6]
  % Impurities, Total: 1.6%
  % Impurities, 25-HC: 0.3%
[5]; 2-8° C., 60° C., 80° C.
  Overall physical and chemical stability (in words): least physically and chemically stable
[5]; 2-8° C., 60° C., 80° C., listed as magnesium
  Overall physical and chemical stability (in words): least stable
[5]; [9]
  Physical and chemical solid-state stability (comments): Totally decomposed after 1 week at 60 °C
  dissolution of decomposed samples in diluent / degradants observed (comments): decomposed samples at 60 °C after 1 week did not dissolve in the diluent,; also recorded: therefore, no degradants were observed. However, the decomposed
[5]; 60° C., 1 wk (after 3 weeks at 2-8° C.), 10080 min, listed as 25HC3S magnesium, 10080 min
  Assay: 0.0 % w/w
[5]; 60° C., 1 wk, 10080 min, listed as 25HC3S magnesium
  % Recovery of 2-8° C./3 wk vs 60° C./1 wk: 0.0%
[5]; [10]
  Physical and chemical solid-state stability (comments): Totally decomposed after 1 week at 60 °C and after 3 weeks at 80 °C
  dissolution of decomposed samples in diluent / degradants observed (comments): samples at 80 °C after 3 weeks may have dissolved slightly in the diluent,; also recorded: therefore, degradation products were observed
[5]; 80° C., 3 wk, vs 2-8° C., 30240 min, listed as 25HC3S magnesium, 30240 min
  % Recovery: 0.0%
[5]; 80° C., 3 wk, 30240 min, listed as 25HC3S magnesium
  Assay: 0.0 % w/w
[5]; [7]
  % Impurities, Total: 100%
[5]; solid state, 60° C., 1 week (after 3 weeks at 2-8° C.)
  Stability after 1 week at 60° C. (in words): totally decomposed
[5]; solid state, 80° C., 3 weeks
  Stability after 3 weeks at 80° C. (in words): totally decomposed

## C[C@H](CCCC(C)(C)O)[C@H]1CC[C@H]2[C@@H]3CC=C4C[C@@H](OS(=O)(=O)O)CC[C@]4(C)[C@H]3CC[C@]12C [Salt #14]
[1]; 2-8° C., 3 wk
  Appearance: White, free flowing powder with clumping
[1]; 2-8° C., 5 wk
  Appearance: White, free flowing powder with clumping
[2]; 0.9% nacl, room temperature, ND = not detected, detection limit 0.7 μg/mL, read-out: Solubility in 0.9% NaCl
  solubility at 24 h: 8 µg/mL
[2]; 5% dextrose, room temperature, ND = not detected, detection limit 0.7 μg/mL, read-out: Solubility in 5% Dextrose
  solubility at 24 h: 38 µg/mL
[2]; room temperature
  Solubility in FaSSGF (in words): low solubility
[2]
  Solubility in FaSSGF: no solubilized drug was detected
[2]; acetonitrile, organic solvent or mixture, acetonitrile, room temperature, read-out: Solubility in ACN
  solubility at 24 h: 800 µg/mL
[2]; ethanol, organic solvent or mixture, ethanol, room temperature, ≥ = did not reach saturation, read-out: Solubility in EtOH
  solubility at 24 h: 1700 µg/mL
[2]; fassif, room temperature, read-out: Solubility in FaSSIF
  solubility at 24 h: 72 µg/mL
[2]; fessif, room temperature, read-out: Solubility in FeSSIF
  solubility at 24 h: 676 µg/mL
[2]; isopropyl alcohol, organic solvent or mixture, isopropyl alcohol, room temperature, read-out: Solubility in IPA
  solubility at 24 h: 900 µg/mL
[2]; methanol, organic solvent or mixture, methanol, room temperature, ≥ = did not reach saturation, read-out: Solubility in MeOH
  solubility at 24 h: 5900 µg/mL
[2]; water, room temperature, ND = not detected, detection limit 0.7 μg/mL, read-out: Solubility in H2O
  solubility at 24 h: 40 µg/mL
[3]
  Angle of Repose: 25.7 degrees
  Angle of Repose, Rounded Whole Number: 26 degrees
[4]
  Hausner Ratio: 1.32
  Compressibility Index: 24
[5]; 2-8° C., 3 wk
  % Impurities, Total: 3.2%
  % Impurities, 25-HC: 0.3%
[5]; 2-8° C., 5 wk
  % Impurities, Total: 2.4%
  % Impurities, 25-HC: 0.3%
[5]; 2-8° C., 60° C., 80° C.
  Overall physical and chemical stability (in words): physically and chemically stable
[5]; 2-8° C., 60° C., 80° C., listed as lysine
  Overall physical and chemical stability (in words): relatively stable
[5]; 80° C., 3 wk
  % Impurities, 25-HC: 0.3%
  % Impurities, Total: 3.7%
[5]; 80° C., 5 wk
  % Impurities, 25-HC: 0.3%
  % Impurities, Total: 3.1%
[5]; 80° C.
  Stressed stability at 80° C. (in words): good, stressed stability
[5]; 80° C., 5 weeks
  Physical and chemical solid-state stability (comments): Stable after 5 weeks at 80 °C physically and chemically.
[5]; solid state, 2-8° C., 3 wk, read-out: Assay
  remaining at 504 h: 91.5%
[5]; solid state, 2-8° C., 5 wk, read-out: Assay
  remaining at 840 h: 94.2%
[5]; solid state, 80° C., 3 wk, vs 2-8° C., read-out: % Recovery
  remaining at 504 h: 101%
[5]; solid state, 80° C., 3 wk, read-out: Assay
  remaining at 504 h: 92.8%
[5]; solid state, 80° C., 5 weeks
  Stability after 5 weeks at 80° C. (in words): stable
[5]; solid state, 80° C., 5 wk, read-out: % Recovery, 2-8° C./5 wk vs 80° C./5 wk
  remaining at 840 h: 103%
[5]; solid state, 80° C., 5 wk, read-out: Assay
  remaining at 840 h: 96.9%
